Assay results published in US11524012B1, “Quinolone analogs and their salts, compositions, and method for their use” (Senhwa Biosciences, Inc., priority 2018, dated 2022).

Assays:
[1] = Toxicokinetics in rat toxicity study (IV infusion); format: in vivo; conditions: for half-life / AUC(0-inf) / Cmax / Tmax: rat, plasma
Protocol: Rats: Pharmacokinetic properties of Compound I were evaluated in a rat toxicity study across a range of IV doses: 5, 10, and 20 mg/kg/dose administered as ready-to-use formulation (see Example 1). Compound I was administered by intravenous infusion via a catheter placed into the lateral tail vein once per week over a period of 1 hour on Days 1, 8, and 15. Blood samples for toxicokinetic (TK) analysis were collected from treated TK animals predose, within 3 minutes of end of infusion, and at 1, 3, 5, 11, 23, and 47 hours post end of infusion on Day 1 and within 3 minutes of end of infusion and 47 hours post end of infusion on Day 15. The TK parameters were determined for Compound I from the mean plasma concentrations per gender and group, using a non-compartmental method.

[2] = Toxicokinetics in dog toxicity study (IV infusion); format: in vivo
Protocol: Dogs: Pharmacokinetic properties of Compound I were evaluated in a dog toxicity study across a range of IV doses: 15, 30, and 45 mg/kg/dose. A ready-to-use solution of Compound I (see Example 1) was administered by intravenous infusion via a catheter placed into the cephalic vein once per week over a period of 1 hour on Days 1, 8, and 15. Blood samples for TK analysis were collected predose, 0.25, 0.5, and 1 hour (from the start of infusion), and then at 0.5, 1, 2, 3, 5, 7, 9, 11, 23, 35, and 47 hours post end of infusion on Day 1, and predose, 1 hour (end of infusion), and then at 47 hours post end of infusion on Day 15. The TK parameters were calculated for each animal, using individual plasma concentration-time data of Compound I. TK parameters derived for the first (Day 1) dose were tabulated and summarized by sex within dose group (Table 27).

Plasma protein binding = format: in vitro ADME, human; conditions: independent of drug concentration
Protocol: The plasma concentrations in the mouse are magnitude higher than in rat, dog and monkey. These trends are qualitatively similar to those seen in the plasma protein binding assays. Compound I is highly bound (>99%) to human plasma proteins, and this binding is independent of drug concentration. Compound I (1 μM) partitioning to blood cells compared to plasma was evaluated in human whole blood, and was determined to prefer plasma (˜65%) to the cellular compartment (˜30%).

[3] = Pharmacokinetic study in patients with advanced hematologic cancers (IV infusion, LC/MS/MS); format: in vivo, human; conditions: for AUC(0-t) / Cmax / Tmax / half-life: human, plasma
Protocol: Pharmacokinetic studies and dose escalation studies were conducted in adult patients with advanced hematologic cancers at 25, mg/m^2 (ready-to-use formulation), 50 mg/m^2 (ready-to-use formulation), 100 mg/m^2 (ready-to-use formulation), 170 mg/m^2 (lyophilized formulation), and 250 mg/m^2 (lyophilized formulation) dose levels of Compound I. Each patient received one dose over 1 hour by IV infusion, once every three weeks±2 days (Cohort 1).
Dose escalations were planned in 7 cohorts (25-450 mg/m2), in an accelerated design, with change to 3+3 design based on predefined toxicity criteria. 16 patients (6 myeloma, 2 Hodgkin lymphoma, 6 Non Hodgkin lymphoma (NHL), 1 TPLL, 1 CLL) were treated in 5 cohorts (25-250 mg/m2), for a median of 2 (1-18) cycles.
250 mg/m^2 dose of Compound I was prepared according to Example 2 (lyophilized composition with mannitol) and reconstituted with 5% glucose in sterile water for IV infusion.
Levels of Compound I in patient's plasma were analyzed by liquid chromatography tandem mass spectrometry (LC/MS/MS) assay. Experimental procedures of the validated methods are summarized below.
Calibration standards and QC samples were prepared by spiking the appropriate working solution and the internal standard spiking solution into blank human plasma (NaHep). Each sample was extracted with ACN and then centrifuged at 13700×g (12000 rpm) for 5 minutes. The extracted top layer was transferred to another disposable glass tube and evaporated to complete dryness in a water-bath at 40° C. under a stream of air or nitrogen. The dried sample was reconstituted with a solution of 50:50:0.1 (v/v) mixture of ACN:deionized water:formic acid. The reconstituted sample was transferred to a LC vial for LC/MS/MS analysis.
The analytical method parameters are summarized below: • Isocratic elution using 7:3 (v/v) ACN: 75 mM Ammonium Formate (pH 2.5) as the mobile phase • Flow rate: 0.5 mL/min • Run time: Originally validated at 10 min; later validated at 6 min in this study • Column: Zorbax 300-SCX, 3×50 mm, […] • Injection volume: 5 μL • MS mode: ESI positive MRM mode

[4] = 1 hour IV infusion, 5 mg/kg/dose, Female, Day 1 (first dose)
[5] = 1 hour IV infusion, 5 mg/kg/dose, Male, Day 1 (first dose)
[6] = 1 hour IV infusion, 10 mg/kg/dose, Female, Day 1 (first dose)
[7] = 1 hour IV infusion, 10 mg/kg/dose, Male, Day 1 (first dose)
[8] = 1 hour IV infusion, 20 mg/kg/dose, Female, Day 1 (first dose)
[9] = 1 hour IV infusion, 20 mg/kg/dose, Male, Day 1 (first dose)
[10] = 25 mg/m^2 (ready-to-use formulation), 1 hour IV infusion, first dose (first cycle), N 3
[11] = 50 mg/m^2 (ready-to-use formulation), 1 hour IV infusion, first dose (first cycle), N 4
[12] = 100 mg/m^2 (ready-to-use formulation), 1 hour IV infusion, first dose (first cycle), N 4
[13] = 170 mg/m^2 (lyophilized formulation), 1 hour IV infusion, first dose (first cycle), N 3
[14] = 250 mg/m^2 (lyophilized formulation), 1 hour IV infusion, first dose (first cycle), N 2

SMILES: Cc1cnc(CNC(=O)c2c(=O)c3ccc(N4CCCN(C)CC4)nc3n3c2sc2ccccc23)cn1 [Compound I, 2-(4-Methyl-[1,4]diazepan-1-yl)-5-oxo-5H-7-thia-1,11b-diaza-benzo[c]fluorene-6-carboxylic acid (5-methyl-pyrazin-2-ylmethyl)-amide]
- AUC0-inf dose proportionality (in words) ([1]; IV 5-20 mg/kg/dose): approximately dose proportional
- half-life ([1]; both sexes, IV infusion 5, 10, 20 mg/kg/dose, Day 1, read-out: terminal half-life): 7 to 16.8 h
- AUC(0-inf) [1, 4]: 20800 ng·h/mL
- Cmax [1, 4]: 2520 ng/mL
- Tmax [1, 4]: 1 h
- half-life ([1]; 1 hour IV infusion, 5 mg/kg/dose, Female, Day 1 (first dose), read-out: T1/2 (converted)): 9.3 h
- AUC(0-inf) [1, 5]: 24500 ng·h/mL
- Cmax [1, 5]: 3360 ng/mL
- Tmax [1, 5]: 1 h
- half-life ([1]; 1 hour IV infusion, 5 mg/kg/dose, Male, Day 1 (first dose), read-out: T1/2 (converted)): 7 h
- AUC(0-inf) [1, 6]: 44800 ng·h/mL
- Cmax [1, 6]: 3810 ng/mL
- Tmax [1, 6]: 2 h
- half-life ([1]; 1 hour IV infusion, 10 mg/kg/dose, Female, Day 1 (first dose), read-out: T1/2 (converted)): 7.6 h
- AUC(0-inf) [1, 7]: 42100 ng·h/mL
- Cmax [1, 7]: 4500 ng/mL
- Tmax [1, 7]: 1 h
- half-life ([1]; 1 hour IV infusion, 10 mg/kg/dose, Male, Day 1 (first dose), read-out: T1/2 (converted)): 8.1 h
- AUC(0-inf) [1, 8]: 80600 ng·h/mL
- Cmax [1, 8]: 4960 ng/mL
- Tmax [1, 8]: 6 h
- half-life ([1]; 1 hour IV infusion, 20 mg/kg/dose, Female, Day 1 (first dose), read-out: T1/2 (converted)): 16.8 h
- AUC(0-inf) [1, 9]: 79200 ng·h/mL
- Cmax [1, 9]: 6810 ng/mL
- Tmax [1, 9]: 1 h
- half-life ([1]; 1 hour IV infusion, 20 mg/kg/dose, Male, Day 1 (first dose), read-out: T1/2 (converted)): 11.4 h
- AUClast dose proportionality (in words) ([2]; IV 15-45 mg/kg/dose): not dose proportional
- half-life ([2]; both sexes, dog, plasma, IV infusion 15, 30, 45 mg/kg/dose, Day 1, read-out: Terminal half-life): 7 to 18.2 h
- bound to human plasma proteins (Plasma protein binding): > 99%
- AUClast dose proportionality (in words) ([3]; 25-250 mg/m^2): not dose proportional
- AUC(0-t) [3, 10]: 2060 ng·h/mL
- Cmax [3, 10]: 297 ng/mL
- Tmax ([3]; 25 mg/m^2 (ready-to-use formulation), 1 hour IV infusion, first dose (first cycle), N 3, median): 1 h
- half-life ([3]; 25 mg/m^2 (ready-to-use formulation), 1 hour IV infusion, first dose (first cycle), N 3, read-out: T1/2 (converted)): 23.2 h
- AUC(0-t) [3, 11]: 3650 ng·h/mL
- Cmax [3, 11]: 384 ng/mL
- Tmax ([3]; 50 mg/m^2 (ready-to-use formulation), 1 hour IV infusion, first dose (first cycle), N 4, median): 0.75 h
- half-life ([3]; 50 mg/m^2 (ready-to-use formulation), 1 hour IV infusion, first dose (first cycle), N 4, read-out: T1/2 (converted)): 39.8 h
- AUC(0-t) [3, 12]: 10100 ng·h/mL
- Cmax [3, 12]: 636 ng/mL
- Tmax ([3]; 100 mg/m^2 (ready-to-use formulation), 1 hour IV infusion, first dose (first cycle), N 4, median): 0.5 h
- half-life ([3]; 100 mg/m^2 (ready-to-use formulation), 1 hour IV infusion, first dose (first cycle), N 4, read-out: T1/2 (converted)): 58.4 h
- AUC(0-t) [3, 13]: 16800 ng·h/mL
- Cmax [3, 13]: 1710 ng/mL
- Tmax ([3]; 170 mg/m^2 (lyophilized formulation), 1 hour IV infusion, first dose (first cycle), N 3, median): 0.52 h
- half-life ([3]; 170 mg/m^2 (lyophilized formulation), 1 hour IV infusion, first dose (first cycle), N 3, read-out: T1/2 (converted)): 45.5 h
- AUC(0-t) [3, 14]: 27100 ng·h/mL
- Cmax [3, 14]: 1360 ng/mL
- Tmax ([3]; 250 mg/m^2 (lyophilized formulation), 1 hour IV infusion, first dose (first cycle), N 2, median): 1 h
- half-life ([3]; 250 mg/m^2 (lyophilized formulation), 1 hour IV infusion, first dose (first cycle), N 2, read-out: T1/2 (converted)): 83.3 h
- half-life ([3]; first dose, 25-250 mg/m^2 IV infusion over 1 hour, read-out: Mean elimination half-life): 23.2 to 83.3 h
